The values that follow come from US12662489B2 (Sitryx Therapeutics Limited, priority 2023, dated 2026).

The target of test [1] is T1, human α4β2 neuronal nicotinic receptor (Homo sapiens, UniProt P17787+P43681).
T1 construct: host or cells: SH-SY5Y cells (membrane homogenates)
The test is described as follows: α4β2 neuronal nicotinic receptor assay (agonist radioligand, [3H]cytisine). In kind it is binding. The procedure:
Cell membrane homogenates (30 μg protein) were incubated for 120 min at 4° C. with 0.6 nM [3H]cytisine in the absence or presence of the test compound in a buffer containing 50 mM Tris-HCl (pH 7.4), 120 mM NaCl, 5 mM KCl, 2.5 mM CaCl2 and 1 mM MgCl2. Nonspecific binding was determined in the presence of 10 μM nicotine bitartrate. Following incubation, the samples were filtered rapidly under vacuum through glass fiber filters (GF/B, Packard) presoaked with 0.3% PEI and rinsed several times with ice-cold 50 mM Tris-HCl using a 96-sample cell harvester (Unifilter, Packard).
The filters were dried then counted for radioactivity in a scintillation counter (Topcount, Packard) using a scintillation cocktail (Microscint 0, Packard). The results were expressed as a percent inhibition of the control radioligand specific binding. The standard reference compound was nicotine bitartrate.
A number of example compounds of formula (I) were tested to evaluate their affinity for the human α4β2 neuronal nicotinic receptor expressed in transfected SH-SY5Y cells, determined in a radioligand binding assay.

Test [2] concerns the target T2, MTHFD1 recombinant human enzyme (Homo sapiens, UniProt P11586).
T2 sequence (P11586 2-291 limits assumed): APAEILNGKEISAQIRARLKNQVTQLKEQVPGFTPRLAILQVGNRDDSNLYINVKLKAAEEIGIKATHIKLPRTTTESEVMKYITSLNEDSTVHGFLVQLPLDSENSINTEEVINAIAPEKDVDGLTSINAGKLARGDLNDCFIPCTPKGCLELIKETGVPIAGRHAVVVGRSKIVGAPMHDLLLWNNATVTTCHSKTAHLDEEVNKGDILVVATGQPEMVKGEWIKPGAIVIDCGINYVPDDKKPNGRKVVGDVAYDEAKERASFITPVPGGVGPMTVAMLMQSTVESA
Put plainly: MTHFD1 inhibition assay (NAD(P)H-Glo luminescence).

Test [3] deals with T3, MTHFD2 recombinant human enzyme (Homo sapiens, UniProt P13995).
T3 sequence (P13995 36-350): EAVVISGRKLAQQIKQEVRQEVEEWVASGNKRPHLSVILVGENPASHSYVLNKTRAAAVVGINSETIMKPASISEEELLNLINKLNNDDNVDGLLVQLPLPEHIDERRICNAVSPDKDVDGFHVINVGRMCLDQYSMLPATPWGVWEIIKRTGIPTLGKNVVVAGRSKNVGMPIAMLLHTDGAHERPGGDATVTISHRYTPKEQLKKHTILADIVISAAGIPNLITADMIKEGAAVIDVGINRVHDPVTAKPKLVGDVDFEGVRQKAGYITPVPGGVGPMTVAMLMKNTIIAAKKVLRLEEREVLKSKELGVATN
Put plainly: MTHFD2 inhibition assay (NAD(P)H-Glo luminescence). The note with it: for MTHFD1/MTHFD2 IC50 ratio: selectivity of MTHFD2 inhibition over MTHFD1, band.

Another test relates to human CD4+ T cells. The test is described as follows: Human CD4+ T-cell proliferation assay (CFSE, CD3/28 beads). Conditions: read-out: Proliferation IC50.
Setting [4] is: transfected SH-SY5Y cell membranes, 0.6 nM [3H]cytisine, band.
Where [5] appears, read: MTHFD1 IC50, recombinant human enzyme 200 nM, NADP, band.

SMILES strings stand for the structures. Where two headings read alike, the source gives them in different places.

T1 sequence (P43681 29-627 limits assumed): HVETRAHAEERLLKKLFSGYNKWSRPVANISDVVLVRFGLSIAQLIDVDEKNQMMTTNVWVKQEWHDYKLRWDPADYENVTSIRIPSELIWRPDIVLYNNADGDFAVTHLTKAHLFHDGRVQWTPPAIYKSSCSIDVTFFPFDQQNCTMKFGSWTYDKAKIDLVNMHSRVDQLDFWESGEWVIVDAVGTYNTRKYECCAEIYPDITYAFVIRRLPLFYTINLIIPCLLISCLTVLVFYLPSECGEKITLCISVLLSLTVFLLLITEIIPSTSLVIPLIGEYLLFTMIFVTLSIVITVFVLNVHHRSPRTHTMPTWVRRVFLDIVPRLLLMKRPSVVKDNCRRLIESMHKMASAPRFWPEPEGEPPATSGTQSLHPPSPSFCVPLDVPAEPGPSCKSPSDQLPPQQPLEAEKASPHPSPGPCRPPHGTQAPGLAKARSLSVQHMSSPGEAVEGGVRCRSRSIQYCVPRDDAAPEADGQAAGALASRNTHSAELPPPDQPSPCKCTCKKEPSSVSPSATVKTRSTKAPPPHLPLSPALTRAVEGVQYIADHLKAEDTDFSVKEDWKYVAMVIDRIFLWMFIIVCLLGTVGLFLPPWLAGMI
T1 sequence (P17787 26-502): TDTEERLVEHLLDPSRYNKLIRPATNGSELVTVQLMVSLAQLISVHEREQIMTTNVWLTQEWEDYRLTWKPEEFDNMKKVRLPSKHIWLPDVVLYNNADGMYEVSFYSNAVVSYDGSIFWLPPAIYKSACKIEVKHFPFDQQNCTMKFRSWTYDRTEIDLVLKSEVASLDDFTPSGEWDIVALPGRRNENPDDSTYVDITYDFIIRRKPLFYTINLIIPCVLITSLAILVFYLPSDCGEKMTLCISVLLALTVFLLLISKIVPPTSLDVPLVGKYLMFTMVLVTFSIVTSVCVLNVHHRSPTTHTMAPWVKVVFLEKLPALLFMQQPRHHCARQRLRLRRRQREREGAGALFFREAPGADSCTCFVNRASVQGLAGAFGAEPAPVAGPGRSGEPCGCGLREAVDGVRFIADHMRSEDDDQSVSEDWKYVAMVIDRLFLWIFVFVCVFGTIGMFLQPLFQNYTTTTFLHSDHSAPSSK

Take `COC[C@H]1CN(c2cc(C)c3c4c(c(=O)oc3c2C)CN(C(=O)c2ccc(C(=O)NS(=O)(=O)N3CC5CC5C3)c(OC)c2F)CC4)CCN1C` (stereo partly drawn) [Example 156, N-((3-azabicyclo[3.1.0]hexan-3-yl)sulfonyl)-3-fluoro-2-methoxy-4-(8-((R)-3-(methoxymethyl)-4-methylpiperazin-1-yl)-7,10-dimethyl-5-oxo-1,3,4,5-tetrahydro-2H-chromeno[3,4-c]pyridine-3-carbonyl)benzamide]: the IC50 was 20 to 100 µM in test [1] (setting [4]), 100 to 1000 nM in test [2] (setting [5]), 10 to 100 nM in test [3] and 30 to 100 nM in the test with human CD4+ T cells.
As to `COC[C@H]1CN(c2cc(C)c3c4c(c(=O)oc3c2C)CN(C(=O)c2ccc(C(=O)NS(=O)(=O)N(C)C)c(N3CCCC3)c2)CC4)CCN1C` [Example 20, (R)-N-(N,N-dimethylsulfamoyl)-4-(8-(3-(methoxymethyl)-4-methylpiperazin-1-yl)-7,10-dimethyl-5-oxo-1,3,4,5-tetrahydro-2H-chromeno[3,4-c]pyridine-3-carbonyl)-2-(pyrrolidin-1-yl)benzamide], the IC50 in test [1] (setting [4]) fell in the range of 2 to 20 µM; in test [2] (setting [5]), 1 to 10 nM; in test [3] it was 1 to 10 nM. Also, the “MTHFD1/MTHFD2 IC50 ratio” value in test [3] is given as “G (^ 3 to 9.0)”.
`COC[C@H]1CN(c2cc(C)c3c4c(c(=O)oc3c2C)CN(C(=O)c2ccc(C(=O)NS(=O)(=O)N3CCCC3)c(OC3CCC3)c2F)CC4)CCN1C` [Example 3, (R)-2-cyclobutoxy-3-fluoro-4-(8-(3-(methoxymethyl)-4-methylpiperazin-1-yl)-7,10-dimethyl-5-oxo-1,3,4,5-tetrahydro-2H-chromeno[3,4-c]pyridine-3-carbonyl)-N-(pyrrolidin-1-ylsulfonyl)benzamide]: the IC50 was in the range of 20 to 100 µM in test [1] (setting [4]), 10 to 100 nM in test [2] (setting [5]), 10 to 100 nM in test [3] and 1 to 10 nM with human CD4+ T cells. Also, the “MTHFD1/MTHFD2 IC50 ratio” value in test [3] is reported as “F (<3)”.
With `COC[C@H]1CN(c2cc(C)c3c4c(c(=O)oc3c2C)CN(C(=O)c2ccc(C(=O)NS(=O)(=O)N(C)C(C)C)c(OC3CCCC3)c2F)CC4)CCN1C` [Example 24, (R)-2-(cyclopentyloxy)-3-fluoro-N-(N-isopropyl-N-methylsulfamoyl)-4-(8-(3-(methoxymethyl)-4-methylpiperazin-1-yl)-7,10-dimethyl-5-oxo-1,3,4,5-tetrahydro-2H-chromeno[3,4-c]pyridine-3-carbonyl)benzamide], the IC50 in test [1] (setting [4]) is 20 to 100 µM; in test [2] (setting [5]), 1 to 10 nM; in test [3], 1 to 10 nM. Further, the “MTHFD1/MTHFD2 IC50 ratio” value in test [3] was “F (<3)”.
For `COC[C@H]1CN(c2cc(C)c3c4c(c(=O)oc3c2C)CN(C(=O)c2ccc(C(=O)NS(=O)(=O)C3(C)CC3)c(OC3CCC3)c2)CC4)CCN1C` [Example 2, (R)-2-cyclobutoxy-4-(8-(3-(methoxymethyl)-4-methylpiperazin-1-yl)-7,10-dimethyl-5-oxo-1,3,4,5-tetrahydro-2H-chromeno[3,4-c]pyridine-3-carbonyl)-N-((1-methylcyclopropyl)sulfonyl)benzamide], the IC50 in test [1] (setting [4]) was in the range of 20 to 100 µM; in test [2] (setting [5]) it was 100 to 1000 nM; in test [3], 10 to 100 nM. Further, in test [3], the “MTHFD1/MTHFD2 IC50 ratio” value is “G (^ 3 to 9.0)”.
The corresponding values for `COC[C@H]1CN(c2cc(C)c3c4c(c(=O)oc3c2C)CN(C(=O)c2ccc(C(=O)NS(=O)(=O)C3(C)CC3)c(N3CCCC3)c2)CC4)CCN1C` [Example 45, (R)-4-(8-(3-(methoxymethyl)-4-methylpiperazin-1-yl)-7,10-dimethyl-5-oxo-1,3,4,5-tetrahydro-2H-chromeno[3,4-c]pyridine-3-carbonyl)-N-((1-methylcyclopropyl)sulfonyl)-2-(pyrrolidin-1-yl)benzamide] are 20 to 100 µM, 10 to 100 nM, 1 to 10 nM and “H (>9.0 to 30)”.
Regarding `Cc1c(N2CCN(C)[C@@H](C)C2)ccc2c3c(c(=O)oc12)CN(C(=O)c1ccc(NS(C)(=O)=O)c(OC(F)(F)F)c1)CC3` [Reference Example 1, reference compound], the IC50 in test [1] is less than 2 µM; in test [1] (setting [4]), less than 2 µM; in test [2] (setting [5]) it was 100 to 1000 nM; in test [2] (MTHFD1 IC50, specific value, average of multiple repeats), 410 nM; in test [3] (MTHFD2 IC50, recombinant human enzyme 40 nM, NAD+, band), 10 to 100 nM; in test [3] (MTHFD2 IC50, specific value, average of multiple repeats), 45 nM.
As to `COC[C@H]1CN(c2cc(C)c3c4c(c(=O)oc3c2C)CN(C(=O)c2ccc(C(=O)NS(=O)(=O)N(C)C(C)C)c(OC3CCC3)c2F)CC4)CCN1C` [Example 25, (R)-2-cyclobutoxy-3-fluoro-N-(N-isopropyl-N-methylsulfamoyl)-4-(8-(3-(methoxymethyl)-4-methylpiperazin-1-yl)-7,10-dimethyl-5-oxo-1,3,4,5-tetrahydro-2H-chromeno[3,4-c]pyridine-3-carbonyl)benzamide], the IC50 in test [1] (setting [4]) lay within 20 to 100 µM; in test [2] (setting [5]) it was 1 to 10 nM; in test [3], 1 to 10 nM. For the same compound, the “MTHFD1/MTHFD2 IC50 ratio” value in test [3] was “F (<3)”.
With `COC[C@H]1CN(c2ccc3c4c(c(=O)oc3c2C)CN(C(=O)c2ccc(C(=O)NS(=O)(=O)N(C)C)c(N3CCCC3)c2)CC4)CCN1C` [Example 18, (R)-N-(N,N-dimethylsulfamoyl)-4-(8-(3-(methoxymethyl)-4-methylpiperazin-1-yl)-7-methyl-5-oxo-1,3,4,5-tetrahydro-2H-chromeno[3,4-c]pyridine-3-carbonyl)-2-(pyrrolidin-1-yl)benzamide], the IC50 is more than 100 µM in test [1] (setting [4]), 10 to 100 nM in test [2] (setting [5]) and 1 to 10 nM in test [3]. Further, in test [3], the “MTHFD1/MTHFD2 IC50 ratio” value is given as “G (^ 3 to 9.0)”.
Taken in the same sequence, the figures for `COC[C@H]1CN(c2ccc3c4c(c(=O)oc3c2C)CN(C(=O)c2ccc(C(=O)NS(=O)(=O)N3CCCC3)c(OC3CCCC3)c2F)CC4)CCN1C` [Example 12, (R)-2-(cyclopentyloxy)-3-fluoro-4-(8-(3-(methoxymethyl)-4-methylpiperazin-1-yl)-7-methyl-5-oxo-1,3,4,5-tetrahydro-2H-chromeno[3,4-c]pyridine-3-carbonyl)-N-(pyrrolidin-1-ylsulfonyl)benzamide] were more than 100 µM, 1 to 10 nM, 1 to 10 nM and “F (<3)”.
On to `[2H]C([2H])([2H])Oc1cc(C(=O)N2CCc3c(c(=O)oc4c(C)c(N5CCN(C)[C@@H](COC)C5)cc(Cl)c34)C2)c(F)cc1C(=O)NS(=O)(=O)N1CCCC1` [Example 246, (R)-4-(10-chloro-8-(3-(methoxymethyl)-4-methylpiperazin-1-yl)-7-methyl-5-oxo-1,3,4,5-tetrahydro-2H-chromeno[3,4-c]pyridine-3-carbonyl)-5-fluoro-2-(methoxy-d3)-N-(pyrrolidin-1-ylsulfonyl)benzamide], for which the IC50 in test [2] (setting [5]) fell in the range of 100 to 1000 nM; in test [3], 1 to 10 nM; in the test with human CD4+ T cells, 100 to 1000 nM. Also, the “MTHFD1/MTHFD2 IC50 ratio” value in test [3] is listed as “J (>30)”.
In the case of `COC[C@H]1CN(c2cc(C)c3c4c(c(=O)oc3c2C)CN(C(=O)c2cc(F)c(C(=O)NS(=O)(=O)N3CCCC3)cc2C)CC4)CCN1C` [Example 270, (R)-2-fluoro-4-(8-(3-(methoxymethyl)-4-methylpiperazin-1-yl)-7,10-dimethyl-5-oxo-1,3,4,5-tetrahydro-2H-chromeno[3,4-c]pyridine-3-carbonyl)-5-methyl-N-(pyrrolidin-1-ylsulfonyl)benzamide], the IC50 is 1000 to 5000 nM in test [2] (setting [5]), 1 to 10 nM in test [3] and 1000 to 5000 nM in the test with human CD4+ T cells. In test [3], the “MTHFD1/MTHFD2 IC50 ratio” value is given as “J (>30)”.
Regarding `COC[C@H]1CN(c2cc(Cl)c3c4c(c(=O)oc3c2C)CN(C(=O)c2cc(N(C)C)c(C(=O)NS(=O)(=O)N(C)C)cc2Cl)CC4)CCN1C` [Example 291, (R)-5-chloro-4-(10-chloro-8-(3-(methoxymethyl)-4-methylpiperazin-1-yl)-7-methyl-5-oxo-1,3,4,5-tetrahydro-2H-chromeno[3,4-c]pyridine-3-carbonyl)-2-(dimethylamino)-N-(N,N-dimethylsulfamoyl)benzamide], the figures for the IC50 (in test [2] (setting [5]); in test [3]; with human CD4+ T cells) were 1000 to 5000 nM, 10 to 100 nM and 30 to 100 nM, respectively. Further, in test [3], the “MTHFD1/MTHFD2 IC50 ratio” value was “J (>30)”.
